Experimental data as given in patent publication US10035777B2, “Heterocyclic kinase inhibitors” (priority 2014, dated 2018).
Where two headings read alike, the source gives them in different places.

Biological target: GST-Xa-hAAK1 (Homo sapiens (Human), UniProt Q2M2I8)
Assay: biochemical
Procedure: The assays were performed in U-bottom 384-well plates. […] The reactions were initiated by the combination of bacterially expressed, GST-Xa-hAAK1 with substrates and test compounds. The reactions were incubated at room temperature for 3 hours and terminated by adding 60 μl of 35 mM EDTA buffer to each sample. The reactions were analyzed on the Caliper LabChip 3000 (Caliper, Hopkinton, Mass.) by electrophoretic separation of the fluorescent substrate and phosphorylated product. […] Compounds were dissolved at 10 mM in dimethylsulfoxide (DMSO) and evaluated at eleven concentrations. IC50 values were derived by non-linear regression analysis.

[1] = ATP 22 μM, GST-Xa-hAAK1 3.5 nM, room temperature for 3 hours, Caliper LabChip 3000, read-out: AAK1 IC50

Chain of GST-Xa-hAAK1 (Q2M2I8 whole entry): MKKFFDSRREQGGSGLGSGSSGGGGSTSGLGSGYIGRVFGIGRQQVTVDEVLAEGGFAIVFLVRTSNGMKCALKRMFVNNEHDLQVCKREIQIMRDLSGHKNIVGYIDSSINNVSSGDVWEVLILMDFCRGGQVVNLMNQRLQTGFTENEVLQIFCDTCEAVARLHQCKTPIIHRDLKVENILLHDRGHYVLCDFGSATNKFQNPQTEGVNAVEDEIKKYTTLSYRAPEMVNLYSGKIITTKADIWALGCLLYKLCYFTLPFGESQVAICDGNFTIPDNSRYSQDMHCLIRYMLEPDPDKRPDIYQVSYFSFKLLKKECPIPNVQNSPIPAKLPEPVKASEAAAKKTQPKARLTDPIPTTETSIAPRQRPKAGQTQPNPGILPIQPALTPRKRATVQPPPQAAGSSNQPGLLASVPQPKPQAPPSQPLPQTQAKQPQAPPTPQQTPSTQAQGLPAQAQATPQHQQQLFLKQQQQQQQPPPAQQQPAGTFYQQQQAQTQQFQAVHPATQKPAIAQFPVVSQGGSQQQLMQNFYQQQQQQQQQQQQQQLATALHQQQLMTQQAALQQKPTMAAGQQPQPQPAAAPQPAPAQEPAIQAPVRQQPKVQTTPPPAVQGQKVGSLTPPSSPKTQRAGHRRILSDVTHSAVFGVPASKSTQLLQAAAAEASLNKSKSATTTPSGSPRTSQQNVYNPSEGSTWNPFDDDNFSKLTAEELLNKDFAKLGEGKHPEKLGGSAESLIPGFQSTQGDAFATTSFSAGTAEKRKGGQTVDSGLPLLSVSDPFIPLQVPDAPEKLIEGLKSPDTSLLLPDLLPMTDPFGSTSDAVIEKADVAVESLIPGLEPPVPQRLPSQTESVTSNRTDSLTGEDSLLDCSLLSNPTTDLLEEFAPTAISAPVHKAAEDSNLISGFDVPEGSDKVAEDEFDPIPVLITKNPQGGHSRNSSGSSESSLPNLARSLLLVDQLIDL

SMILES | IC50 [1] [nM] | IC50 [nM] | also measured
CC(C)C[C@@H](N)c1nc2ccc(-c3cnco3)cc2n1CCO [Example 41, (R)-2-(2-(1-amino-3-methylbutyl)-6-(oxazol-5-yl)-1H-benzo[d]imidazol-1-yl)ethanol] | 559 |  | 
CC(C)C[C@@H](N)c1nc2ccc(-c3ccncc3)cc2n1C [Example 42, (R)-3-methyl-1-(1-methyl-6-(pyridin-4-yl)-1H-benzo[d]imidazol-2-yl)butan-1-amine] | 159 |  | 
CCCn1c([C@H](N)CC(C)C)nc2ccc(-c3ccncc3)cc21 [Example 43, (R)-3-methyl-1-(1-propyl-6-(pyridin-4-yl)-1H-benzo[d]imidazol-2-yl)butan-1-amine] | 103 |  | 
CC(C)C[C@@H](N)c1nc2ccc(-c3ccncc3)cc2n1C(C)C [Example 44, (R)-1-(1-isopropyl-6-(pyridin-4-yl)-1H-benzo[d]imidazol-2-yl)-3-methylbutan-1-amine] | 124 |  | 
CCn1c([C@H](N)CC(C)C)nc2cc(-c3ccncc3)ccc21 [Example 45, (R)-1-(1-ethyl-5-(pyridin-4-yl)-1H-benzo[d]imidazol-2-yl)-3-methylbutan-1-amine] | 749 |  | 
CCn1c([C@H](N)CC(C)C)nc2cc(-c3cnco3)ccc21 [Example 46, (R)-1-(1-ethyl-5-(oxazol-5-yl)-1H-benzo[d]imidazol-2-yl)-3-methylbutan-1-amine] | 1540 |  | 
COc1cc2nc([C@H](N)CC(C)C)[nH]c2cc1-c1ccncc1 [Example 47, (R)-1-(5-methoxy-6-(pyridin-4-yl)-1H-benzo[d]imidazol-2-yl)-3-methylbutan-1-amine] |  | 487 | 
CC1CC1c1nc2ccc(-c3ccncc3)cc2[nH]1 (stereo not drawn) [Example 48, 2-(2-methylcyclopropyl)-6-(pyridin-4-yl)-1H-benzo[d]imidazole] | 897 |  | 
CC1(C)CC1c1nc2ccc(-c3ccncc3)cc2[nH]1 (stereo not drawn) [Example 49, 2-(2,2-dimethylcyclopropyl)-6-(pyridin-4-yl)-1H-benzo[d]imidazole] |  | 338 | 
Cn1nc(C(C)(C)C)cc1-c1nc2ccc(-c3ccncc3)cc2[nH]1 [Example 50, 2-(3-(tert-butyl)-1-methyl-1H-pyrazol-5-yl)-6-(pyridin-4-yl)-1H-benzo[d]imidazole] |  | 1730 | 
CC(C)N1CC(c2nc3ccc(-c4ccncc4)cc3[nH]2)CC1=O (stereo not drawn) [Example 51, 1-isopropyl-4-(6-(pyridin-4-yl)-1H-benzo[d]imidazol-2-yl)pyrrolidin-2-one] |  | 783 | 
CC(C)OCc1nc2ccc(-c3ccncc3)cc2[nH]1 [Example 54, 2-(isopropoxymethyl)-6-(pyridin-4-yl)-1H-benzo[d]imidazole] |  | 785 | 
CC(C)(C)OCc1nc2ccc(-c3ccncc3)cc2[nH]1 [Example 55, 2-(tert-butoxymethyl)-6-(pyridin-4-yl)-1H-benzo[d]imidazole] |  | 1790 | 
COc1cnccc1-c1ccc2[nH]c(CCC(C)C)nc2c1 [Example 56, 2-isopentyl-5-(3-methoxypyridin-4-yl)-1H-benzo[d]imidazole] | 620 |  | 
COc1cc(-c2ccc3[nH]c(CCC(C)C)nc3c2)ccn1 [Example 57, 2-isopentyl-5-(2-methoxypyridin-4-yl)-1H-benzo[d]imidazole] | 1550 |  | 
CC(C)CC(C)c1nc2cc(-c3ccncc3)ccc2[nH]1 (stereo not drawn) [Example 58, 2-(4-methylpentan-2-yl)-5-(pyridin-4-yl)-1H-benzo[d]imidazole] | 40 |  | 
CN[C@H](CC(C)C)c1nc2cc(-c3ccnc(N)c3)ccc2[nH]1 [Example 59, (R)-4-(2-(3-methyl-1-(methylamino)butyl)-1H-benzo[d]imidazol-5-yl)pyridin-2-amine] | 7 |  | 
CNc1cc(-c2ccc3[nH]c([C@@H](CC(C)C)NC)nc3c2)ccn1 [Example 61, (R)-N-methyl-4-(2-(3-methyl-1-(methylamino)butyl)-1H-benzo[d]imidazol-5-yl) pyridin-2-amine] | 8 |  | 
CN[C@H](CC(C)C)c1nc2cc(-c3ccncc3)ccc2[nH]1 [Example 62, N,3-dimethyl-1-(5-(pyridin-4-yl)-1H-benzo[d]imidazol-2-yl) butan-1-amine] |  | 12 | 
CN[C@H](CC(C)C)c1nc2cc(-c3ccnc(NC(C)=O)c3)ccc2[nH]1 [Example 63, (R)-N-(4-(2-(3-methyl-1-(methylamino)butyl)-1H-benzo[d]imidazol-5-yl)pyridin-2-yl)acetamide] |  | 14 | 
COc1cc2[nH]c([C@H](N)C3CCCCC3)nc2cc1-c1cnco1 [Example 64, (R)-cyclohexyl(6-methoxy-5-(oxazol-5-yl)-1H-benzo[d]imidazol-2-yl)methanamine] | 16 |  | 
CC(C)CC(CN)c1nc2cc(-c3cnco3)ccc2[nH]1 (stereo not drawn) [Example 65, 4-methyl-2-(5-(oxazol-5-yl)-1H-benzo[d]imidazol-2-yl)pentan-1-amine] | 26 |  | 
CC(C)C[C@@H](NCC(F)(F)F)c1nc2cc(-c3ccncc3)ccc2[nH]1 [Example 66, 3-methyl-1-(5-(pyridin-4-yl)-1H-benzo[d]imidazol-2-yl)-N-(2,2,2-trifluoroethyl)butan-1-amine] |  |  | IC50 (read-out: AAK1 IC50): 45 nM

SMILES | IC50 [1] [nM] | IC50 [nM] | also measured
CC(C)CC(CN)c1nc2cc(-c3ccncc3)ccc2[nH]1 (stereo not drawn) [Example 67, 4-methyl-2-(5-(pyridin-4-yl)-1H-benzo[d]imidazol-2-yl) pentan-1-amine] |  | 49 | 
COc1cc2[nH]c([C@H](N)C3CCCC3)nc2cc1-c1cnco1 [Example 68, (R)-cyclopentyl (6-methoxy-5-(oxazol-5-yl)-1H-benzo[d]imidazol-2-yl) methanamine] |  | 50 | 
COc1cc2[nH]c(CC3CCCC3)nc2cc1-c1cnco1 [Example 69, 5-(2-(cyclopentylmethyl)-6-methoxy-1H-benzo[d]imidazol-5-yl) oxazole] |  | 57 | 
N[C@H](CC1CC1)c1nc2cc(-c3ccncc3)ccc2[nH]1 [Example 70, (R)-2-cyclopropyl-1-(5-(pyridin-4-yl)-1H-benzo[d]imidazol-2-yl) ethanamine] |  | 61 | 
COc1cc2[nH]c(C(N)CC3CCCC3)nc2cc1-c1cnco1 (stereo not drawn) [Example 71, 2-cyclopentyl-1-(6-methoxy-5-(oxazol-5-yl)-1H-benzo[d]imidazol-2-yl)ethanamine] |  | 70 | 
c1cc(-c2ccc3[nH]c(CC4CCCCC4)nc3c2)ccn1 [Example 72, 2-(cyclohexylmethyl)-5-(pyridin-4-yl)-1H-benzo[d]imidazole] |  | 108 | 
CNC(CC(C)C)c1nc2cc(-c3ccncc3)c(OC)cc2[nH]1 (stereo not drawn) [Example 73, 1-(6-methoxy-5-(pyridin-4-yl)-1H-benzo[d]imidazol-2-yl)-N,3-dimethylbutan-1-amine] |  | 180 | 
N[C@@H](c1nc2cc(-c3ccncc3)ccc2[nH]1)C1CC1 [Example 74, (R)-cyclopropyl (5-(pyridin-4-yl)-1H-benzo[d]imidazol-2-yl)methanamine] |  | 228 | 
CN[C@H](CC(C)C)c1nc2cc(-c3ccnc(N(C)C)c3)ccc2[nH]1 [Example 75, (R)-N,N-dimethyl-4-(2-(3-methyl-1-(methylamino)butyl)-1H-benzo[d]imidazol-5-yl) pyridin-2-amine] |  | 244 | 
CC(C)(F)CC(N)c1nc2cc(-c3ccncc3)ccc2[nH]1 (stereo not drawn) [Example 76, 3-fluoro-3-methyl-1-(5-(pyridin-4-yl)-1H-benzo[d]imidazol-2-yl)butan-1-amine] | 350 |  | 
N[C@@H](c1nc2cc(-c3ccncc3)ccc2[nH]1)C1CCOCC1 [Example 77, (R)-(5-(pyridin-4-yl)-1H-benzo[d]imidazol-2-yl) (tetrahydro-2H-pyran-4-yl) methanamine] |  | 436 | 
Cc1noc(C)c1-c1ccc2[nH]c([C@H](N)CC(C)C)nc2c1 [Example 78, (R)-1-(5-(3,5-dimethylisoxazol-4-yl)-1H-benzo[d]imidazol-2-yl)-3-methylbutan-1-amine] |  | 510 | 
CC(c1nc2cc(-c3ccncc3)ccc2[nH]1)N1CCOCC1 (stereo not drawn) [Example 79, 4-(1-(5-(pyridin-4-yl)-1H-benzo[d]imidazol-2-yl)ethyl)morpholine] |  | 591 | 
CC(C)C[C@@H](NC(=O)C(F)(F)F)c1nc2cc(-c3ccncc3)ccc2[nH]1 [Example 80, (R)-2,2,2-trifluoro-N-(3-methyl-1-(5-(pyridin-4-yl)-1H-benzo[d]imidazol-2-yl)butyl)acetamide] |  | 697 | 
CC1CCCC(c2nc3ccc(-c4ccncc4)cc3[nH]2)C1 (stereo not drawn) [Example 81, 2-(3-methylcyclohexyl)-6-(pyridin-4-yl)-1H-benzo[d]imidazole] |  | 1430 | 
COc1cc2[nH]c([C@H](N)C3CCCC3)nc2cc1-c1ccncc1 [Example 82, (R)-cyclopentyl(6-methoxy-5-(pyridin-4-yl)-1H-benzo[d]imidazol-2-yl)methanamine] |  | 1800 | 
CC(C)CC(N)c1nc2cc(-c3ccncc3)ccc2o1 (stereo not drawn) [Example 83, 3-methyl-1-(5-(pyridin-4-yl)benzo[d]oxazol-2-yl)butan-1-amine] | 71 |  | 
CC(C)CC(N)c1nc2ccc(-c3ccncc3)cc2o1 (stereo not drawn) [Example 84, 3-methyl-1-(6-(pyridin-4-yl)benzo[d]oxazol-2-yl)butan-1-amine] | 438 |  | 
CC(C)CCc1nc2ccc(-c3ccncc3)cc2o1 [Example 85, 2-isopentyl-6-(pyridin-4-yl)benzo[d]oxazole] | 833 |  | 
C/C(=C\C(C)C)c1nc2cc(-c3ccncc3)ccc2o1 [Example 86, (E)-2-(4-methylpent-2-en-2-yl)-5-(pyridin-4-yl)benzo[d]oxazole] |  |  | IC50 (read-out: AAK1 IC50): 2310 nM
CC(C)CC(C)c1nc2ccc(-c3ccncc3)cc2o1 (stereo not drawn) [Example 87, 2-(4-methylpentan-2-yl)-6-(pyridin-4-yl)benzo[d]oxazole] | 92 |  | 
CC(C)CC(C)c1nc2cc(-c3ccncc3)ccc2o1 (stereo not drawn) [Example 88, 2-(4-methylpentan-2-yl)-5-(pyridin-4-yl)benzo[d]oxazole] | 62 |  | 
